According to patent US20230017045A1, “PYRIDINE AND PYRIMIDINE CARBOXYLATE HERBICIDES AND METHODS OF USE THEREOF” (Dow AgroSciences LLC, priority 2017, published 2023):
Like-named read-outs stand apart in the source and are kept apart here.

System: test plant species
Assay: Post-emergent herbicidal activity test (greenhouse, foliar spray, visual growth reduction)
Type: in vivo
Details: 140 g ai/ha; for pest or weed control at 140 g/ha: post-emergence, 336 h
Outline: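 Visual scoring 14 d after treatment (0 = no injury, 100 = complete control) against nontreated and solvent-blank plants gave percent growth reduction. Foliar application used a track sprayer delivering 187 L/ha to seedlings at first or second true leaf stage, grown at 23–29 °C day, ~15 h photoperiod.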

[1] = ECHCG: barnyardgrass (Echinochloa crus-galli), 14 days after application, read-out: Visual Growth Reduction (%) 14 Days After Application, ECHCG
[2] = IPOHE: ivy-leaf morning glory (Ipomoea hederacea), 14 days after application, read-out: Visual Growth Reduction (%) 14 Days After Application, IPOHE
[3] = KCHSC: kochia (Bassia scoparia), 14 days after application, read-out: Visual Growth Reduction (%) 14 Days After Application, KCHSC
[4] = ORYSA: rice (Oryza sativa), 14 days after application, read-out: Visual Growth Reduction (%) 14 Days After Application, ORYSA
[5] = SETFA: giant foxtail (Setaria faberi), 14 days after application, read-out: Visual Growth Reduction (%) 14 Days After Application, SETFA
[6] = SORVU: grain sorghum (Sorghum vulgare), 14 days after application, read-out: Visual Growth Reduction (%) 14 Days After Application, SORVU
[7] = STEME: common chickweed (Stellaria media), 14 days after application, read-out: Visual Growth Reduction (%) 14 Days After Application, STEME
[8] = TRZAS: wheat, spring (Triticum aestivum), 14 days after application, read-out: Visual Growth Reduction (%) 14 Days After Application, TRZAS
[9] = blackgrass (Alopecurus myosuroides), 14 Days After Application, read-out: Visual Growth Reduction (%) ALOMY
[10] = canada thistle (Cirsium arvense), 14 Days After Application, read-out: Visual Growth Reduction (%) CIRAR
[11] = crabgrass (Digitaria sanguinalis), 14 Days After Application, read-out: Visual Growth Reduction (%) DIGSA
[12] = lambsquarters (Chenopodium album), 14 Days After Application, read-out: Visual Growth Reduction (%) CHEAL
[13] = redroot pigweed (Amaranthus retroflexus), 14 Days After Application, read-out: Visual Growth Reduction (%) AMARE
[14] = wild oat (Avena fatua), 14 Days After Application, read-out: Visual Growth Reduction (%) AVEFA
[15] = yellow nutsedge (Cyperus esculentus), 14 Days After Application, read-out: Visual Growth Reduction (%) CYPES
[16] = ALOMY: blackgrass (Alopecurus myosuroides), 14 days after application, read-out: Visual Growth Reduction (%) 14 Days After Application, ALOMY
[17] = AMARE: redroot pigweed (Amaranthus retroflexus), 14 days after application, read-out: Visual Growth Reduction (%) 14 Days After Application, AMARE
[18] = AVEFA: wild oat (Avena fatua), 14 days after application, read-out: Visual Growth Reduction (%) 14 Days After Application, AVEFA
[19] = CHEAL: lambsquarters (Chenopodium album), 14 days after application, read-out: Visual Growth Reduction (%) 14 Days After Application, CHEAL
[20] = CIRAR: canada thistle (Cirsium arvense), 14 days after application, read-out: Visual Growth Reduction (%) 14 Days After Application, CIRAR
[21] = CYPES: yellow nutsedge (Cyperus esculentus), 14 days after application, read-out: Visual Growth Reduction (%) 14 Days After Application, CYPES
[22] = DIGSA: crabgrass (Digitaria sanguinalis), 14 days after application, read-out: Visual Growth Reduction (%) 14 Days After Application, DIGSA

Compound	pest or weed control at 140 g/ha [1] [%]	pest or weed control at 140 g/ha [2] [%]	pest or weed control at 140 g/ha [3] [%]	pest or weed control at 140 g/ha [4] [%]	pest or weed control at 140 g/ha [5] [%]	pest or weed control at 140 g/ha [6] [%]	pest or weed control at 140 g/ha [7] [%]	pest or weed control at 140 g/ha [8] [%]	pest or weed control at 140 g/ha [16] [%]	pest or weed control at 140 g/ha [17] [%]	pest or weed control at 140 g/ha [18] [%]	pest or weed control at 140 g/ha [19] [%]	pest or weed control at 140 g/ha [20] [%]	pest or weed control at 140 g/ha [21] [%]	pest or weed control at 140 g/ha [22] [%]	also measured
COC(=O)c1nc(-c2ccc(C(F)(F)F)c(F)c2F)c(F)cc1Cl [F310, Methyl 3-chloro-6-(2,3-difluoro-4-(trifluoromethyl)phenyl)-5-fluoropicolinate]	60 to 74	95 to 100	45 to 59	0 to 29	85 to 94	95 to 100	0 to 29	60 to 74								pest or weed control at 140 g/ha [9]: 45 to 59%; pest or weed control at 140 g/ha [10]: 95 to 100%; pest or weed control at 140 g/ha [11]: 95 to 100%; pest or weed control at 140 g/ha [12]: 95 to 100%; pest or weed control at 140 g/ha [13]: 95 to 100%; pest or weed control at 140 g/ha [14]: 60 to 74%; pest or weed control at 140 g/ha [15]: 75 to 84%
COC(=O)c1nc(-c2ccc([N+](=O)[O-])cc2)c(F)cc1Cl [F197, Methyl 3-chloro-5-fluoro-6-(4-nitrophenyl) picolinate]																Visual Growth Reduction (%) 14 Days After Application, ALOMY (ALOMY: blackgrass (Alopecurus myosuroides), 14 days after application): G (0-29); Visual Growth Reduction (%) 14 Days After Application, AMARE (AMARE: redroot pigweed (Amaranthus retroflexus), 14 days after application): G (0-29); Visual Growth Reduction (%) 14 Days After Application, AVEFA (AVEFA: wild oat (Avena fatua), 14 days after application): G (0-29); Visual Growth Reduction (%) 14 Days After Application, CHEAL (CHEAL: lambsquarters (Chenopodium album), 14 days after application): E (45-59); Visual Growth Reduction (%) 14 Days After Application, CIRAR (CIRAR: canada thistle (Cirsium arvense), 14 days after application): G (0-29); Visual Growth Reduction (%) 14 Days After Application, CYPES (CYPES: yellow nutsedge (Cyperus esculentus), 14 days after application): G (0-29); Visual Growth Reduction (%) 14 Days After Application, DIGSA (DIGSA: crabgrass (Digitaria sanguinalis), 14 days after application): F (30-44); Visual Growth Reduction (%) 14 Days After Application, ECHCG (ECHCG: barnyardgrass (Echinochloa crus-galli), 14 days after application): G (0-29); Visual Growth Reduction (%) 14 Days After Application, IPOHE (IPOHE: ivy-leaf morning glory (Ipomoea hederacea), 14 days after application): D (60-74); Visual Growth Reduction (%) 14 Days After Application, KCHSC (KCHSC: kochia (Bassia scoparia), 14 days after application): G (0-29); Visual Growth Reduction (%) 14 Days After Application, ORYSA (ORYSA: rice (Oryza sativa), 14 days after application): G (0-29); Visual Growth Reduction (%) 14 Days After Application, SETFA (SETFA: giant foxtail (Setaria faberi), 14 days after application): G (0-29); Visual Growth Reduction (%) 14 Days After Application, SORVU (SORVU: johnsongrass (Sorghum vulgare), 14 days after application): F (30-44); Visual Growth Reduction (%) 14 Days After Application, STEME (STEME: common chickweed (Stellaria media), 14 days after application): G (0-29); Visual Growth Reduction (%) 14 Days After Application, TRZAS (TRZAS: wheat, spring (Triticum aestivum), 14 days after application): G (0-29)
O=C(O)c1nc(-c2cc3c(cc2Cl)OC(F)(F)O3)c(F)cc1Cl [F175, 3-Chloro-6-(6-chloro-2,2-difluorobenzo[d] [1,3]dioxol-5-yl)-5-fluoropicolinic acid]	85 to 94	95 to 100	85 to 94	45 to 59	85 to 94	95 to 100	0 to 29	85 to 94	60 to 74	95 to 100	60 to 74	95 to 100	85 to 94	0 to 29	95 to 100	
COC(=O)c1nc(-c2ccc(C(F)(F)F)cc2Cl)ccc1Br [F32, Methyl 3-bromo-6-(2-chloro-4-(trifluoromethyl)yl)picolinate]	0 to 29	95 to 100	45 to 59	0 to 29	30 to 44	85 to 94	0 to 29	0 to 29	0 to 29	60 to 74	0 to 29	60 to 74	75 to 84	0 to 29	60 to 74	
COC(=O)c1nc(-c2ccc(C(F)(F)F)c(/C=N/N(C)C)c2Cl)ccc1Cl [F142, Methyl (E)-3-chloro-6-(2-chloro-3-((2,2-dimethylhydrazono)methyl)-4-(trifluoromethyl)phenyl)picolinate]	0 to 29	60 to 74	0 to 29	0 to 29	0 to 29	60 to 74	0 to 29	0 to 29	0 to 29	60 to 74	0 to 29	30 to 44	0 to 29	0 to 29	0 to 29	
COC(=O)c1nc(-c2ccc3occc3c2)c(F)cc1Cl [F188, Methyl 6-(benzofuran-5-yl)-3-chloro-5-fluoropicolinate]	0 to 29	30 to 44	0 to 29	0 to 29	0 to 29	0 to 29	0 to 29	0 to 29	0 to 29	0 to 29	0 to 29	60 to 74	45 to 59	0 to 29	30 to 44	
COC(=O)c1nc(-c2ccc3c(c2)OC(F)(F)O3)ccc1Cl [F64, Methyl 3-chloro-6-(2,2-difluorobenzo[d] [1,3]dioxol-5-yl) picolinate]	0 to 29	95 to 100	0 to 29	0 to 29	0 to 29	60 to 74	0 to 29	0 to 29	0 to 29	45 to 59	0 to 29	60 to 74	0 to 29	60 to 74	85 to 94	
COC(=O)c1nc(-c2ccc(C(F)(F)F)cc2Br)c(F)cc1F [F374, Methyl 6-(2-bromo-4-(trifluoromethyl)phenyl)-3,5-difluoropicolinate]	75 to 84	95 to 100	75 to 84	45 to 59	85 to 94	95 to 100	0 to 29	60 to 74								pest or weed control at 140 g/ha [9]: 45 to 59%; pest or weed control at 140 g/ha [10]: 95 to 100%; pest or weed control at 140 g/ha [11]: 85 to 94%; pest or weed control at 140 g/ha [12]: 95 to 100%; pest or weed control at 140 g/ha [13]: 95 to 100%; pest or weed control at 140 g/ha [14]: 45 to 59%; pest or weed control at 140 g/ha [15]: 0 to 29%
